The values below come from patent US4622321A, “Oxadiazolylimidazobenzodiazepine, compositions, and method” (AS Ferrosan, priority 1985, dated 1986).

The structures appear in SMILES notation.

What is called ED50 is the dose that gives a 50% effect, or the effect in half of the subjects.

In one assay the test system is benzodiazepine receptors. Description: In vivo inhibition of 3H-flunitrazepam binding to mouse forebrain membranes (Procedure 130). The conditions noted are these: for ED50 binding in vivo: i.p. 15 min before 3H-FNM i.v., dose which inhibits 50% of specific 3H-FNM binding, mouse forebrain. The arrangement: species or system mice. As to the method:
I. In vivo inhibition of ^3 H-flunitrazepam binding to mouse forebrain membranes by test substances administered intraperitoneally. (Procedure 130)
Twenty minutes after a dose of ^3 H-flunitrazepam (^3 H-FNM) (200 μCi/kg, i.v.) the amount of specific ^3 H-FNM binding to brain benzodiazepine receptors has reached its maximal value.
Suspensions of test substances (2 mg/ml) are prepared in 5% Duphasol-X* by sonification for 10 min using a Branson B15 microtip ultrasonifier (setting 7). Groups of three mice (female, NMR, 18-22 gram) are injected with the test substance at 100 mg/kg intraperitoneally. Fifteen minutes after test substance administration the mice are challenged with 4 μCi intraveneously of ^3 H-FNM (70-90 Ci/mole) in 200 μl physiological saline. Twenty minutes after ^3 H-FNM administration mice are sacrificed by decapitation, the forebrains rapidly excised (within 30 sec) and homogenized in 12 ml of icecold 25 mM KH2 PO4, pH 7.1, using an Ultra-Turrax homogenizer fitted with an N 10 shaft. Two aliquots of 1 ml are immediately filtered through Whatman GF/C glassfibre filters and washed with 2×5 ml of the above mentioned buffer. The amounts of radioactivity on the filters are determined by conventional scintillation counting. One group of untreated mice serves as controls. One to three mice are injected with 25 mg/kg clonazepam i.p. 30 minutes before ^3 H-FNM to determine the amount of non-specific ^3 H-FNM binding, which should be between 8-15% of total binding.
*(™Duphar; castor-oil-ethylene oxide derivative for emulsifying and solubilizing oil and other water-insoluble substances)
When doses of 100 mg/kg inhibit more than 50% of specific ^3 H-flunitrazepam binding; test substances are administered in doses, which are factors of 3.16 times lower than 100 mg/kg.
The ED50 for a test substance is defined as that dose which inhibits 50% of specific ^3 H-FNM binding. Specific binding is the amount of binding in controls minus the amount binding in clonazepam-treated mice.
The ED50 value is determined from dose response curves. If only one dose of test substance is administered the ED50 value is calculated as follows, provided that the inhibition of specific binding is within the range of 25-75%: [formula] where Co is specific binding in controls and Cx is specific binding in mice treated with test substance.

In assay [1] the test system is pentylenetetrazol-induced tonic convulsions in mice. Description: Pentazol tonic convulsions in mice, i.p. (Procedure 401). The format is in vivo. The conditions noted are these: for ED50: Mus musculus, ip, i.p. 30 min before 150 mg/kg pentylenetetrazol s.c., seizures inhibited in 50% of the animals, read-out: ED50, activity against pentazol induced convulsions, tonic. The protocol:
III. Pentazol tonic conv. mice i.p. (Procedure 401)
Pentylenetetrazol induces clonic and tonic convulsions in mice at doses of 60-120 mg/kg s.c. The mechanism is unknown but seem to be due to some effects through the GABA receptor/benzodiazepine receptor/chloride ionophore complex. Antagonism of convulsions induced by maximal doses of pentylenetetrazol is considered predictive for drugs effective against petit mal epilepsia and anxiety.
150 mg/kg pentylenetetrazol (Pentazol, Sigma) dissolved in 0.9% NaCl is given by the subcutaneous route in volumes of 15 ml/kg to male or female NMRI mice weighing 20-25 g 30 min after an intraperitoneal injection of a test compound.
The ED50 value is calculated as the dose in μg/kg where seizures are inhibited in 50% of the animals using a computer program based on the method of Litchfield and Wilcoxon (1949).

In assay [2] the test system is pentylenetetrazol-induced clonic convulsions in mice. Description: Pentazol clonic convulsions in mice, i.p. (Procedure 400). It counts as in vivo. The conditions noted are these: for ED50: Mus musculus, ip, i.p. 30 min before 150 mg/kg pentylenetetrazol s.c., seizures inhibited in 50% of the animals, read-out: ED50, activity against pentazol induced convulsions, clonic. The protocol: II. Pentazol clonic conv. mice (i.p.) (Procedure 400)
Pentylenetetrazol induces clonic and tonic convulsions in mice at doses of 60-120 mg/kg s.c. The mechanism is unknown but seems to be due to some effects through the GABA receptor/benzodiazepine receptor/chloride ionophore complex. Antagonism of convulsions induced by maximal doses of pentylenetetrazol is considered predictive for drugs effective against petit mal epilepsia and anxiety.
150 mg/kg pentylenetetrazol dissolved in 0.9% NaCl is given by the subcutaneous route in volumes of 15 ml/kg to male or female NMRI mice weighing 20-25 g 30 min after an intraperitoneal injection of a test compound.
The ED50 value is calculated as the dose in μg/kg at which seizures are inhibited in 50% of the animals using a computer program based on the method of Litchfield and Wilcoxon (1949).

[3] abbreviates: compared to analogue (D), Roche EP 150,040 ex. 44.

For `CN1Cc2c(-c3noc(C4CC4)n3)ncn2-c2ccccc2C1=O` [A, 3-(5-cyclopropyl-1,2,4-oxadiazol-3-yl)-5,6-dihydro-5-methyl-6-oxo-4H-imidazo[1,5-a][1,4]benzodiazepine], the “times as active in binding affinity for the benzodiazepine receptor” value with benzodiazepine receptors (setting [3]) was “more than 4 times”. In the assay on benzodiazepine receptors (compared to compound E), the “times more as active in binding affinity for the benzodiazepine receptor” value was 12 times. Besides, the “ED50 binding in vivo” value with benzodiazepine receptors was found to be 80 µg/kg. Moreover, the ED50 in assay [1] is 0.03 mg/kg; in assay [2], 0.07 mg/kg. Moreover, the “times as active in protecting against pentetrazol induced tonic convulsions” value in assay [1] (setting [3]) is 10 times; in assay [1] (compared to compound E), 33 times. The “times as active in protecting against pentetrazol induced clonic convulsions” value is listed as “approximately 40 times” in assay [2] (setting [3]) and 185 times in assay [2] (compared to compound E).
For the molecule `CCc1nc(-c2ncn3c2CN(C)C(=O)c2ccccc2-3)no1` [B], the “ED50 binding in vivo” value in the assay on benzodiazepine receptors is 1,800 μg/kg. Moreover, the ED50 in assay [1] was 1.3 mg/kg; in assay [2], 27 mg/kg.
For `CC(C)c1noc(-c2ncn3c2CN(C)C(=O)c2ccccc2-3)n1` [C] the same measures were 600 µg/kg, 1.7 mg/kg and 3 mg/kg.
In the same order, the values of `CN1Cc2c(-c3nc(C4CC4)no3)ncn2-c2ccccc2C1=O` [D] are 340 µg/kg, 0.3 mg/kg and 2.7 mg/kg.
In the same order, the values of `O=C1c2c(Cl)cccc2-n2cnc(-c3noc(C4CC4)n3)c2C2CCCN12` (stereo not drawn) [E] are 960 µg/kg, 1 mg/kg and 13 mg/kg.
